Reference: US10266520B2, “Bisamidinium-based inhibitors for the treatment of myotonic dystrophy” (The Board of Trustees of the University of Illinois, priority 2014, dated 2019)

Columns and labels:
MBNL1-(CUG)12 complex = details: earlier work; read-out: KI, inhibition of MBNL1-(CUG)12 complex; cited from earlier work
GFP-MBNL-rCUG^exp foci = assay: Nuclear foci disruption, FISH/confocal with GFP-MBNL1 in DM1 model HeLa cells; type: cell-based
Method: (§1) FIG. 2A-C. (a) Representative confocal microscope images showing the GFP-MBNL-rCUG^exp foci disruption by compounds 1a and 2a. (b) Percent of foci area per cell after treatment of ligands for 48 h. The sequestration and dispersion of endogenous MBNL under the treatment of ligand are quantitatively measured. Error bars represent standard errors of mean from at least four independent experiments, two-tail t-test *P<0.005. Note: This was a head-to-head comparison between compounds 1a and 2a. […] The difference is attributed to variability in cells and conditions. (c) Cytotoxicity profile of compound 2a.
To evaluate the ability of dimer 2a to disrupt the […] in DM1 model cells, a standard fluorescence in situ hybridization experiment using exogenous MBNL was performed (FIG. 2a) (see Jahromi et al., ACS Chem. Biol. 2013, 8, 1037-1043). Here, GFP-MBNL1 was employed because of its intense signal and ability to easily monitor the location of the MBNL1 in live cells. Thus, normal HeLa cells were transfected with a plasmid containing GFP-MBNL1. To generate DM1 model cells, these HeLa cells were also transfected with a DMPK plasmid containing (CTG)960. […] The presence of MBNL1 was indicated as a green color from GFP signal for GFP-MBNL1 (Column 2), whereas (CUG)960 was detected by a complementary sequence (CAG)10 conjugated with a Cy3 dye and represented by a red color (Column 3). […]

[1] = earlier work; cited from earlier work
[2] = earlier work; cited from earlier work; remark: listed apart in the source
[3] = system: MBNL1-rCUG^exp nuclear foci; assay: Nuclear foci quantification with endogenous MBNL1 (immunofluorescence) in DM1 model cells; type: cell-based; details: 48 h
Method: as §1
In addition, a parallel experiment using endogenous MBNL1 in place of GFP-MBNL1 was conducted to quantify foci reduction in a model that more closely resembles DM1 patient cells. The endogenous MBNL1 was detected by an immunofluorescence technique (Alexa Fluor® 488 dye-labeled antibody) (Wong et al., J. Am. Chem. Soc. 2014, 136, 6355-6361). […] Incubation of 2a at 10 μM decreased the foci area to ca. 36%, but a similar level was also observed for the 100 μM treatment. It is encouraging that dimeric ligand 2a is as active at 1 μM as monomeric ligand 1a is at 100 μM. However, the lack of an obvious dose dependence and failure to fully dissolved nuclear foci at 100 μM may indicate a cellular penetration issue for 2a. Further study is underway.
(§2) ITC, EMSA, confocal microscopy, IR splicing, and the reversal of rough-eye phenotype assays were conducted as previously described (Wong et al., J. Am. Chem. Soc. 2014, 136, 6355-6361). The cytotoxicity of 2a was accessed using a published protocol (Vichai et al., Sulforhodamine B colorimetric assay for cytotoxicity screening, Nat. Protoc. 2006, 1, 1112-1116).

[4] = system: MBNL1-rCUG^exp nuclear foci; details: cited from earlier work
[5] = system: insulin receptor (IR) pre-mRNA splicing; details: DM1 model cells; cited from earlier work
HeLa cells = assay: SRB cytotoxicity assay; type: cell-based
Method: This finding indicates an advantage of the bisamidinium-based ligands over the acridine-containing ligands.
as §2

[6] = system: insulin receptor (IR) pre-mRNA splicing; assay: Correction of IR alternative splicing in DM1 cell model (RT-PCR); type: cell-based; details: 1 μM
Source text: FIG. 3A-B. (a) Schematic representation of IR alternative splicing. (b) Correction of IR splicing by compounds 2a and 1a as determined by conventional RT-PCR. Error bars represent standard deviation for three independent experiments, two-tail t-test *P<0.01,**P<0.005.
Because 2a is capable of inhibiting MBNL1-rCUG^exp both in vitro and in cells, we evaluated its ability to correct the splicing defects in the DM1 cell model. We chose to examine the IR mRNA mis-splicing, because among several pre-mRNA splicing defects associated with the depletion of MBNL1 protein, the reversal of IR splicing requires the largest amount of free MBNL1 and is therefore the more challenging defect. During the alternative splicing of IR, two products were generated: isoforms IR-A and IR-B with the exclusion and inclusion of exon 11, respectively (FIG. 3a). In normal skeletal muscle, IR-B is the dominant isoform, whereas IR-A is more abundant in DM1 skeletal muscle. […] In particular, compound 2a at 1 μM increased the abundance of isoform B to 49% (ca. 80% correction).
ITC, EMSA, confocal microscopy, IR splicing, and the reversal of rough-eye phenotype assays were conducted as previously described (Wong et al., J. Am. Chem. Soc. 2014, 136, 6355-6361). […]

Row | Structure (SMILES) | Ki (MBNL1-(CUG)12 complex) | foci dispersion (GFP-MBNL1) (GFP-MBNL-rCUG^exp foci; 100 μM) | water solubility [1] | cytotoxicity [2] | nuclear foci remaining / foci area ([3]; 100 μM) | reduction of foci to (previous study) ([4]; 100 μM, previous study) | MBNL1-rCUG^exp nuclear foci in DM1 model cells (earlier work) ([4]; earlier work) | mis-splicing of cTNT and IR pre-mRNA (earlier work) [5] | foci dispersion (GFP-MBNL1) (GFP-MBNL-rCUG^exp foci; 1, 10, and 100 μM) | HeLa cell death (HeLa cells; 100 μM, 96 h) | cellular toxicity (HeLa cells; lower concentrations (below 100 μM)) | nuclear foci remained after treatment ([3]; 1 μM) | foci area after treatment ([3]; 10 μM) | correction of IR splicing ([6]; DM1 cell model) | abundance of IR isoform B ([6]; DM1 cell model (normal ca. 53%, DM1 34%))
1 | N=C(NCCCCNc1nc(N)nc(N)n1)c1ccc(C(=N)NCCCCNc2nc(N)nc(N)n2)cc1 [Compound 1a] | 8 µM | foci dispersion was observed | excellent water solubility | low cytotoxicity | ca. 90% | 32% | dissolved foci | partially rescuing the mis-splicing | – | – | – | – | – | – | –
2 | N=C(NCCCCNc1nc(N)nc(N)n1)c1ccc(C(=N)NCCCCNc2nc(N)nc(NCCCn3cc(CNc4nc(N)nc(NCCCCNC(=N)c5ccc(C(=N)NCCCCNc6nc(N)nc(N)n6)cc5)n4)nn3)n2)cc1 [Compound 2a] | – | – | – | – | – | – | – | – | foci dispersion was observed | ca. 10% | negligible cellular toxicity | approximately 72% | ca. 36% | ca. 80% | 49%
